This is an account of results in patent US20100316738A1, “METHODS OF INHIBITING, PREVENTING, KILLING AND/OR REPELLING INSECTS USING SIMULATED BLENDS OF CHENOPODIUM EXTRACTS” (priority 2009, published 2010).

SMILES strings stand for the structures. Several values for one entry are separate records, joined by “and”; a condition that tells them apart may be missing. Identical values can stand only once.

This experiment deals with lepidoptera eggs (Spodoptera exigua). Put plainly: Direct contact overlay LC assay, caterpillar eggs. The conditions noted are these: for Direct AVG LC50 / Estimated LC50: mortality after five days; for Direct AVG LC50: diluent 0.25% Tween 81; for Estimated LC50: nested set, probit analysis, tested alone in 0.25% Tween 81; for Times more active in the C13 blend than when tested alone: LC50 alone vs share of C13 LC50 (1% solution).

From the text: The objective of this study was to evaluate the effects of synthetic blend-based composition C13 and each of its primary terpenes against lepidoptera eggs (Spodoptera exigua) in a laboratory assay that mimics contact activity on a leaf surface in the field. This was done by estimating the LC50 of the solvent/carrier (in this instance, vegetable oil) and the three primary terpenes alone, and comparing those values to the estimated LC50 of C13.
A requirement of the Probit model used to estimate the LC50 is that there should be a dose response with two rates above 50% mortality and two rates below 50%. Because of their solubility it was not possible to get this with a neat solution of oil or terpenes so, a series of preliminary assays were conducted to find a suitable carrier, testing solutions compatible with the terpenes and carrier. To achieve a stable emulsion of the individual terpenes that could be pipetted across a suitable range of concentrations, it was decided to use a universal diluent containing 0.25% Tween™ 81.
Stock solutions were transferred to deep, 96-well, micro-titre plates. 1.4 ml of each stock solution was placed in the 2 ml wells that ran across the top row of the deep well plate (Row A; wells 1-12, see Table 15). A digital 12-channel Matrix pipette was then used to add 700 uls of 0.25% Tween 81 in deionized water (DI H2O) to the remaining wells (Rows B-H; 1-12). The 12 channel pipette was used to perform serial dilutions by mixing, aspirating, and then dispensing 700 ul of each stock solution from row A into the adjoining 700 ul of diluent in row B. This process was repeated seven times to give a final concentration of eight, 50% serially diluted samples containing 700 μl.
An eight channel Matrix pipette was then used to mix, aspirate and distribute all eight of the serial dilutions from the deep well plate to a labeled 96 well plate containing a wheat germ/casein-based artificial diet. Aliquots containing 240 μl of each dilution were aspirated and 40 μl were dispensed into to six wells across the surface of the micro-titre plate containing 200 μl of artificial diet/well. Two samples were tested on every plate with the one sample in rows A through H—columns 1 to 6, and the second sample in wells A through H columns 7 to 12. The last two samples in each assay contain the Javelin standard and 0.25% Tween in DI water as the untreated controls.
The samples were then dried under forced air at room temperature. This deposits a thin film of the treatment on the surface of the diet much the same way as applying a spray solution to a leaf surface. Once the plates were dried, then eggs were put in each well using a Matrix pipette with 5-10 temporally synchronized caterpillar eggs suspended in 20 μl of a 0.1% agar solution. This rehydrates the surface film and then the egg:agar was dried under forced air, a second time. Once the agar solution was dry the plates were heat sealed with a perforated Mylar film that seals the insects in the well, but allows for gas exchange. The plates were incubated at 28° C. on a 16:8 light:dark cycle. After five days the numbers of live insects in each row were recorded. Mortality was recorded as the number dead over the number treated and expressed as control corrected percent mortality.

Take `CC1=CC=C(C(C)C)CC1` [α-terpinene]: the “Direct AVG LC50” value turned out to be 4.336%; the “Estimated LC50” value is 4.77% and 4.776%.

Take `Cc1ccc(C(C)C)cc1` [p-cymene]: the “Times more active in the C13 blend than when tested alone” value turned out to be 72 X; the “Direct AVG LC50” value amounted to 1.539%; the “Estimated LC50” value was 2.68% and 2.682%.

`C=C(C)[C@H]1CC=C(C)CC1` [d-limonene]: the “Times more active in the C13 blend than when tested alone” value was found to be 64 X; the “Direct AVG LC50” value is 2.093%; the “Estimated LC50” value was 1.9% and 1.905%.
